In patent US6525087B2, “Use of known agonists of the central cannabinoid receptor CB1” (Bayer Aktiengesellschaft, priority 1997, dated 2003):

Key:
[1] = Hypothermia, agonism testing; format: in vivo; conditions: rat, i.v.
Procedure: Five minutes after determination of the basal body temperature via an oesophageal temperature probe, the test substance is administered (i.v.). A control group receives only the solvent for the test substances, likewise i.v. The body temperature is measured 7.5, 15, 30 and 60 minutes after i.v. administration. The group size per dose is 5-7 animals (rats).

[2] = target: T1, rat cortex membranes (Rattus norvegicus, UniProt P20272); assay: Binding studies on rat cortex membranes
T1 construct: Membrane protein is prepared from different tissues or from cells by standard methods; from tissue; host or cells: rat cortex membranes
T1 sequence (P20272 whole entry): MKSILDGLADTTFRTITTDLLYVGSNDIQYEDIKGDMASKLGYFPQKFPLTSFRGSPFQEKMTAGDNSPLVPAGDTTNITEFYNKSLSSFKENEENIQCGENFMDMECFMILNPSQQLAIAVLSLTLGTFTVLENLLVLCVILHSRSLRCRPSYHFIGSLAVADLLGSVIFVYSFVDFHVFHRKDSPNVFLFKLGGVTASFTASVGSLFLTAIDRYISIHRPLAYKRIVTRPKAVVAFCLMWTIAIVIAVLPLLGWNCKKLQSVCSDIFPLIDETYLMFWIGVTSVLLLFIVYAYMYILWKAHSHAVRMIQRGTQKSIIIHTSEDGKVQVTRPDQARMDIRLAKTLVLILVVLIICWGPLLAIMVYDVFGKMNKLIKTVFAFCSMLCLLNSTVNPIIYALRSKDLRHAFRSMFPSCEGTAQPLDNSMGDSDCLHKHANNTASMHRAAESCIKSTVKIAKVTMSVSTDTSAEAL
Procedure: Binding Studies on Rat Cortex Membranes
Membrane protein is prepared from different tissues or from cells by standard methods. Buffer, labelled ligands, DMSO or test substance are pipetted together, then 100 μg of protein are added, and the mixture is well mixed and incubated in a water bath at 30° C. for 60 min. After expiry of the incubation time, the reaction is stopped by addition of ice-cold incubation buffer to each tube. After filtering off, washing is carried out with ¾ ml of incubation buffer. The filters are transferred to minivials and the radioactivity is determined in a liquid scintillation counter.

[3] = test system: glutamate release; assay: Inhibition of glutamate release (rat hippocampus sections, KCl stimulation); format: cell-based; conditions: 75 mM KCl, ratio S2/S1
Procedure: Inhibition of Glutamate Release
After decapitation of a rat, the skull is opened, and the brain is lifted out and cut through along the median fissure. The hippocampus is exposed, separated from the remaining tissue, cut into 350 μm thick sections and incubated at 37° C. in straining vessels for 60 min. Followed by basal value and stimulation 1 with 75 mM KCl (S 1), the sections are incubated with test substance and then the stimulation with KCl and test substance (S2) is repeated. The glutamate concentration of the samples to be investigated is then measured by means of an enzymatic reaction (GLDH) and fluorometric measurement of NADH. By means of a calibration curve, the glutamate content of the sample is determined, and with knowledge of the protein content the glutamate content/mg of protein can be calculated. The ratio S2/S1 is compared; glutamate release inhibitors reduce this ratio in a concentration-dependent manner.

[4] = target: T2, rat cannabinoid receptor CB1 (Rattus norvegicus, UniProt P20272); assay: CB1 luciferase reporter gene test; format: cell-based; conditions: CHOCB1 reporter cell line, forskolin-stimulated
T2 construct: contains an open reading frame of 1419 base pairs which corresponds to a protein of 473 amino acids; expressed in transfected cells; host or cells: CHOluc9 reporter cells, stably transfected with plasmid CMV-RH (pRc/CMV)
T2 sequence (P20272 whole entry): as above
Procedure: CB1 Luciferase Reporter Gene Test
This construct (plasmid CMV-RH) was employed for transfection experiments.
Stable Transfection of the CHOluc9 Reporter Cells
CHOluc9 cells were cultured in 50% Dulbecco's modified Eagle Medium/50% F-12 (DMEM/F12) which contained 10% foetal calf serum (FCS). Transfections were prepared in 6-well plates. 7.5 μg of Qiagen-purified CMV-RH plasmid DNA were added per 10^5 cells with the DOTAP transfections system, corresponding to the experimental protocol of the manufacturer (Boehringer Mannheim). Transfected cells were selected with 1 mg/ml G418 and individual clones were obtained by limiting dilution on 96-well plates. Cell lines which express the cannabinoid receptor were identified in the presence of forskolin for the inhibition of reporter gene expression after incubation with the cannabinoid receptor agonist, WIN-55,2121-2. Several stably transfected and subcloned cell lines were further characterized by means of RT-PCR, as described under 1.
Test Optimization and Pharmacological Characterization of the CHOCB1 Reporter Cell Line
The following test protocol was used for pharmacological characterization of the cells and for robot-assisted substance screening: the stock cultures were cultured in 50% Dulbecco's modified Eagle Medium/50% F-12 (DMEM/F12) with 10% FCS at 37° C. under 10% CO2 and in each case split 1:10 after 2 to 3 days. […]

[5] = Subdural haematoma in the rat (SDH); format: in vivo; conditions: 2 and 4 h after trauma
Procedure: Subdural Haematoma in the Rat (SDH)
Under anaesthesia, the animals' own blood is injected subdurally on one side. An infarct is formed under the haematoma. Substance administration is carried out according to different time schemes and via different administration routes (i.v., i.p.). The infarct size is determined as described in the model of permanent focal ischaemia in the rat (MCA-O).

[6] = Permanent focal cerebral ischaemia in the rat (MCA-O); format: in vivo; conditions: 2 and 4 h after occlusion, infarct size after 7 days
Procedure: Permanent Focal Cerebral Ischaemia in the Rat (MCA-O)
Under isoflurane anaesthesia, the median cerebral artery is exposed on one side and the latter and its side branches are irreversibly sealed by means of electrocoagulation. As a result of the intervention a cerebral infarct is formed. During the operation, the body temperature of the animal is kept at 37° C. After wound closure and wearing off of the anaesthesia, the animals are again released into their cage. The administration of substances is carried out according to different time schemes and via different administration routes (i.v., i.p.) after occlusion. The infarct size is determined after 7 days. To do this, the brain is removed, worked up histologically and the infarct volume is determined with the aid of a computer-assisted analysis system.

[7] = test system: cannabinoid receptor; conditions: cited from earlier work
[8] = J. Neurotrauma 1993, 10, 109; cited from earlier work
[9] = Brain Res. references; cited from earlier work
[10] = test system: glutamate release; conditions: Brain Res. references; cited from earlier work

In the case of `CCCCCCC(C)(C)c1cc(O)c2c(c1)OC(C)(C)[C@@H]1CC=C(CO)C[C@@H]21` [Example 5], the “Hypothermia ED−1°C. (necessary dose to achieve a maximum temperature drop of 1° C.)” value [1] is reported as 0.01 mg/kg i.v, the Ki [2] is reported as 1000 pM and the inhibition at 1 µM [3] is reported as 20%. The IC50 [4] was 480 pM, the “% reduction in the infarct volume” value ([5]; 0.001 mg/kg i.v. bolus directly) was 58% and the “% reduction in the infarct volume” value ([6]; 0.01 mg/kg i.v. bolus directly) was 48%.
For `CCCCCCC(C)(C)c1cc(O)c2c(c1)OC(C)(C)[C@H]1CC=C(CO)C[C@H]21` [HU-211], the “activity on the cannabinoid receptor” value [7] is given as “inactive”.
For `CCCCCCC(C)(C)c1cc(O)c2c(c1)OC(C)(C)[C@@H]1CC=C(CO)C[C@@H]21` [HU210], the “neuroprotection in a craniocerebral trauma model” value [8] is given as “non-neuroprotective”.
In the case of `CCCCCCC(C)(C)c1ccc([C@@H]2C[C@H](O)CC[C@H]2CCCO)c(O)c1` [Example 15], the “Hypothermia ED−1°C. (necessary dose to achieve a maximum temperature drop of 1° C.)” value [1] is reported as 0.03 mg/kg i.v.
In the case of `Cc1c(C(=O)c2cccc3ccccc23)c2cccc3c2n1[C@H](CN1CCOCC1)CO3` [Example 18], the “Hypothermia ED−1°C. (necessary dose to achieve a maximum temperature drop of 1° C.)” value [1] is reported as 0.2 mg/kg i.v, the inhibition at 1 µM [3] is reported as 50% and the “% reduction in the infarct volume” value ([6]; 0.03 mg/kg i.v. bolus directly) is reported as 20%.
For `Cn1c(=O)c2[nH]cnc2n(C)c1=O` [theophylline], the “neuroprotective action in vivo” value [9] is listed as “no neuroprotective action” and the “inhibition of glutamate release in vitro” value [10] is listed as “markedly inhibit glutamate release”.
For `O=C(O)c1cc(=O)c2ccccc2[nH]1` [kynurenic acid], the “inhibition of glutamate release in vitro” value [10] is given as “markedly inhibit glutamate release”.
For `CCCCCc1cc(O)c2c(c1)OC(C)(C)[C@@H]1CCC(C)=C[C@@H]21` [Example 1], the “Hypothermia ED−1°C. (necessary dose to achieve a maximum temperature drop of 1° C.)” value [1] was 0.8 mg/kg i.v, the “Inhibition of glutamate release, % Inhibition @ 1 μM” value [3] was “no effect” and the “% reduction in the infarct volume” value ([5]; 0.3 mg/kg i.v. bolus directly) was 50%. For the same molecule, the “% reduction in the infarct volume” value ([6]; 1.0 mg/kg i.v. bolus directly) was 31%.
